Key:
[1] = tested on: BLM melanoma cells; test: MUH proliferation assay, BLM; format: cell-based, human; conditions: addition of 5 μM IM-54 to 6-PN/8-PN treatment
Description: (§1) FIG. 5: real time cell monitoring of BLM and SK-MEL-28 melanoma cells treated with 6-PN and 8-PN. (A) BML and SK-MEL-28 cells were treated 24 hours after seeding with different concentrations of 6-PN and 8-PN (20 μM, 50 μM and 100 μM) over a 104 hour time period. The cellular impedance was measured over the entire observation time using the xCELLigence™ SP system and is depicted by the cell index (CI). All CI-values were normalized shortly before the treatment started. […] As a positive control, Triton X-100 0.1% was used to induce cell death. Shown are the mean±SD of three independent experiments, each performed in triplicates (B, C). […] Shown are the mean±SD; the experiments were performed in quadruplicates. (D) The MUH proliferation assay was repeated unter the same treatment conditions on primary human fibroblasts (FF868) and melanocytes (HEM1).
(§2) The cells were seeded in triplicates in 96-well plates at a density of 2,500 cells per well in 50 μl medium (5×10^4 cells per milliliter). […] Plates were incubated at 37° C. for 1 hour and measured in a Fluoroskan II (Lab Systems, Helsinki, Finland) with a […]. The intensity of fluorescence indicates the number of viable cells in the wells. […]

[2] = tested on: SK-MEL-28 melanoma cells; test: MUH proliferation assay, SK-MEL-28; format: cell-based, human; conditions: SK-MEL-28, addition of 5 μM IM-54 to 6-PN/8-PN treatment
Description: as §1, §2

[3] = tested on: primary human fibroblasts (FF868); test: MUH proliferation assay, fibroblasts; format: cell-based; conditions: 6-PN, 8-PN 0.1 μM to 100 μM; TSA, SAHA 100 μM
Description: as §1
(§3) The cells were seeded in triplicates in 96-well plates at a density of 2,500 cells per well in 50 μl medium (5×10^4 cells per milliliter). After 24 hours, the medium was replaced by medium containing 6-PN, 8-PN (dissolved in DMSO), TSA (dissolved in EtOH) or SAHA (dissolved in DMSO) at the concentrations to be tested with or without the addition of the necrosis inhibitor IM-54 at 5 μM (Calbiochem, Darmstadt, Germany). Cells treated with culture medium without or with DMSO served as controls. The assay was started following an incubation of 24 hours. […] Plates were incubated at 37° C. for 1 hour and measured in a Fluoroskan II (Lab Systems, Helsinki, Finland) with a […]. The intensity of fluorescence indicates the number of viable cells in the wells.
(§4) Next it was asked whether the PNs also influence the proliferation of benign cells. To this end, human fibroblasts (FF) and foreskin melanocytes (HEM1) were treated with the same concentrations of 6-PN and 8-PN, and proliferation was assessed using the proliferation assay as described above.

[4] = tested on: foreskin melanocytes (HEM1); test: MUH proliferation assay, melanocytes; format: cell-based; conditions: 6-PN, 8-PN at higher concentrations (0.1 μM to 100 μM tested); TSA, SAHA 100 μM
Description: as §1, §3, §4

[5] = tested on: cleaved caspase-3 in SK-MEL-28 melanoma cells; test: Western blot for cleaved caspase-3; format: cell-based, human; conditions: SK-MEL-28, 100 μM
Description: Western blot analysis of SK-MEL-28 melanoma cells treated with 100 μM of 6-PN, 8-PN, SAHA or TSA. EtOH and DMSO were applied as controls.
The following antibodies were used: Anti-Vinculin and Anti-Actin (1:5000, Sigma-Aldrich), Anti-Acetyl-Histon H3 (1:5000, Millipore, Billerica, USA), Anti-Caspase-3 (1:1000), Anti-AKT, Anti-pAKT, Anti-ERK, Anti-pERK, […], Anti-p70S6 Kinase, and Anti-pS6 protein (1:1000), all from Cell Signaling, Frankfurt, Germany), Anti-LC3 (1:5000, Sigma-Aldrich).
To further analyze the type of cell death induced by 6-PN and 8-PN, western blot analyses of SK-MEL-28 melanoma cells were performed 1, 2, 4, 12 and 24 hours after the treatment with 100 μM 6-PN and 8-PN. […] Upon PN treatment an inconsistent expression of oncogenic AKT and phospho-AKT (pAKT) was detected. […] Thus, there was an obvious discrepancy between the expression of pAKT and pS6P. Therefore it was first also looked for the expression of P70S6 kinase and its phosphorylated form. […] Therefore it was next asked whether the S6P could be phosphorylated by a different mechanism. In this respect, activated ERK can phosphorylate the p90 ribosomal S6 kinase (pP90). pP90 also phosphorylates the S6P (in addition to the P70S6 kinase). Since the pP70S6 kinase was absent in the used cells (SK-MEL-28 and BLM), it was hypothesized that the phosphorylation of the S6P was conducted via the pERK/pP90 pathway, independent from the P70S6 signalling. This hypothesis was supported by the parallel down-regulation of the bands for pP90 (Thr359/Ser363) and pS6P 12 hours after the treatment with 6-PN, and the reappearance of both bands after 24 hours (FIG. 8). […] The western blot experiments were repeated with BLM cells under the same treatment conditions and yielded similar results (not shown).

[6] = tested on: BLM melanoma cells; test: PI/Annexin V staining FACS, BLM; format: cell-based, human; conditions: 10 μM, 6 hours treatment
Description: (§5) (A) Cell cycle FACS analyses of PI stained BLM and SK-MEL-28 melanoma cells. 100 μM of 8-PN-induced a G2 arrest in both cells. (B) FACS analyses of BLM and SK-MEL-28 melanoma cells treated with 100 μM 6-PN or 8-PN and stained for annexin V/PI; staurosporin was used as control for apoptosis induction and DMSO as vehicle control. […] (C) BLM and SK-MEL-28 melanoma cells were treated with 100 μM of PNs; TSA, SAHA and EMSO were used as controls.
(§6) To further analyze the possibility of apoptosis induction, an extensive apoptosis assay was performed on SK-MEL-28 melanoma cells 4 hours after treatment with 100 μM 6-PN or 8-PN (FIG. 9). […] This was verified by FACS cell cycle analyses to screen for a possible increase of the sub-G1 fraction of cells (apoptotic cells) or for the induction of a G2 arrest (inhibition of proliferation). […] To further differentiate between the induction of apoptosis and/or necrosis an PI/Annexin V staining of SK-MEL-28 and BLM cells was performed 4 hours and 24 hours after the treatment with 6-PN or 8-PN; 10 μM staurosporin (6 hours treatment) was used as positive control for the induction of apoptosis; DMSO treatment was used as vehicle control. The cells were then analyzed by FACS.

[7] = tested on: SK-MEL-28 melanoma cells; test: PI/Annexin V staining FACS, SK-MEL-28; format: cell-based, human; conditions: SK-MEL-28, 10 μM, 6 hours treatment
Description: as §5, §6

| Structure (SMILES) | fibroblast proliferation [3] | melanocyte proliferation [4] | band for cleaved caspase-3 [5] | also measured |
| --- | --- | --- | --- | --- |
| CCCCCNC1=C(c2cn(C)c3ccccc23)C(=O)N(C)C1=O [IM-54] | – | – | – | decrease of cell death rates at higher PN concentrations [1]: up to 35%; decrease of cell death rates at higher PN concentrations [2]: up to 35% |
| O=C(CCCCCCC(=O)Nc1ccccc1)NO [SAHA, suberoyl anilide hydroxamic acid] | no reduced proliferation | no reduced proliferation | no additional band | – |
| CC(/C=C/C(=O)NO)=C\[C@@H](C)C(=O)c1ccc(N(C)C)cc1 [TSA, trichostatin A] | no reduced proliferation | no reduced proliferation | no additional band | – |
| CN[C@@H]1C[C@H]2O[C@@](C)([C@@H]1OC)n1c3ccccc3c3c4c(c5c6ccccc6n2c5c31)C(=O)NC4 [staurosporin, reference compound] | – | – | – | annexin V positive (apoptotic) cells ([6]; DMSO control 4.1%): 17.4%; PI positive (nectrotic) cells ([6]; DMSO control 9.1%): 16.6%; annexin V positive (apoptotic) cells ([7]; DMSO control 2.5%): 13.9%; PI positive (nectrotic) cells ([7]; DMSO control 7.9%): 9.3% |

Reference: patent publication US20160067211A1, “PHARMACEUTICAL COMPOSITION” (Eberhard Karls Universitaet Tuebingen Medizinische Fakultaet, priority 2013, published 2016)
